The numbers were not newly measured in US20150209375A1, “POSOLOGY AND ADMINISTRATION OF GLUCOCORTICOID BASED COMPOSITIONS” (DuoCort Pharma AB, priority 2010, published 2015), which cites them from elsewhere.

The conditions of this data set: Lennernäs et al 2008.

As for `C[C@]12CCC(=O)C=C1CC[C@@H]1[C@@H]2[C@@H](O)C[C@@]2(C)[C@H]1CC[C@]2(O)C(=O)CO` [Hydrocortisone], the extraction entry was “low extraction drug”. The BCS class entry (Amidon et al 1995) was “BCS class II”.
